Target: T1, CFTR (F508del/MF-HBE cells) (Homo sapiens, UniProt P13569, DEL508-508)
T1 construct: human bronchial epithelial (HBE) cells derived from CF subjects heterozygous for F508del and a minimal function CFTR mutation; endogenous in cells; host or cells: primary human bronchial epithelial cells from CF subjects (F508del/MF genotype)
Test: Ussing chamber assay of CFTR-mediated short-circuit currents (identification of potentiator compounds)
Assay type: cell-based
Conditions: CFTR-mediated ISC in F508del/MF-HBE cells; incubated 18-24 hours at 37° C. with 10 μM (14S)-8-[3-(2-{dispiro[2.0.2.1]heptan-7-yl}ethoxy)-1H-pyrazol-1-yl]-...-2,2,4-trione, 20% human serum
Outline: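 F508del/minimal-function HBE cultures grown at air-liquid interface were incubated for 18–24 h at 37 °C with potentiator plus 10 μM corrector, in 20% human serum, and compounds stayed present during recording. Transepithelial ISC was recorded at 0 mV and 37 °C with 30 μM apical amiloride. CFTR current was taken as the peak response to 20 μM forskolin minus the steady state after a 20 μM inhibitor cocktail.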

T1 sequence (P13569 with tags, fused parts or gaps DEL508-508): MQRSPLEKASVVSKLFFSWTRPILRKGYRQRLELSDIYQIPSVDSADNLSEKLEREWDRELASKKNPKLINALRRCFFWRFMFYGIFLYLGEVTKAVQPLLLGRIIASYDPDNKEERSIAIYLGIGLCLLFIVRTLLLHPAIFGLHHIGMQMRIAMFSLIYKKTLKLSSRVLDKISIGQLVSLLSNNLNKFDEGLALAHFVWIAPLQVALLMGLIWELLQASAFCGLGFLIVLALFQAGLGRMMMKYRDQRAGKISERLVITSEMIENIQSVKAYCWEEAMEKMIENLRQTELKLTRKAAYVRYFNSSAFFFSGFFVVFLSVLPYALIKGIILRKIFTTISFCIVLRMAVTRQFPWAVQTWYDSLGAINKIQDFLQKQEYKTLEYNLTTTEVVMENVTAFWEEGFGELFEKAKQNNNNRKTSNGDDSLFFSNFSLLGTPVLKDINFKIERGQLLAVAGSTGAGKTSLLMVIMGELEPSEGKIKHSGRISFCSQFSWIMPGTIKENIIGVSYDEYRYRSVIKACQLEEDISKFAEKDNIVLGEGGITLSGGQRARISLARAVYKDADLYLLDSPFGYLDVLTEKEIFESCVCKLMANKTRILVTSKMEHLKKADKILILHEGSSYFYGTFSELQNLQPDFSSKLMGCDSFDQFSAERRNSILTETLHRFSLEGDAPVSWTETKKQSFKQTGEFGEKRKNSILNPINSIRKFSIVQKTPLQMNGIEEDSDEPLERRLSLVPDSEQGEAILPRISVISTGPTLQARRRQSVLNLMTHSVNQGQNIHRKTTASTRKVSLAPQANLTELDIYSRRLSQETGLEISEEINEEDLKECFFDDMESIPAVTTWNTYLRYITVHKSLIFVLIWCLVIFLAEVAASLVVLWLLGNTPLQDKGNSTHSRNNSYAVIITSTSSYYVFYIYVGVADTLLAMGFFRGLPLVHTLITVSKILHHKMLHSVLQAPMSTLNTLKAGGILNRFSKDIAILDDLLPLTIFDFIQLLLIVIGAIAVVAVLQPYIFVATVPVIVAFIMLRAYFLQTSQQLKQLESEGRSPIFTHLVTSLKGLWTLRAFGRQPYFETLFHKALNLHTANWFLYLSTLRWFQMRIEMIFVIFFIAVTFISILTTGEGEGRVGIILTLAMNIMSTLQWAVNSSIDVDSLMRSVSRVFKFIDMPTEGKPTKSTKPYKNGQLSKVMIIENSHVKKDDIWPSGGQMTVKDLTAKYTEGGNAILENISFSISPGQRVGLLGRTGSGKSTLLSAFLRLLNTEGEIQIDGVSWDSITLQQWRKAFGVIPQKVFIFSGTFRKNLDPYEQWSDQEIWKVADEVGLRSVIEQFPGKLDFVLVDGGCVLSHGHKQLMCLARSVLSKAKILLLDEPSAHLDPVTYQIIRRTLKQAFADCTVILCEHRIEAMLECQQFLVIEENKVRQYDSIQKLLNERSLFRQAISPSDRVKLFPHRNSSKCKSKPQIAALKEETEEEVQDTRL

In the case of `CN1CCCCCCC(O)(c2ccccc2)C2=NN=C(O2)c2nc1c(C(F)(F)F)cc2N` (single isomer, unassigned) [Compound 77, 17-amino-13-methyl-6-phenyl-15-(trifluoromethyl)-19-oxa-3,4,13,18-tetrazatricyclo[12.3.1.12,5]nonadeca-1(18),2,4,14,16-pentaen-6-ol], the EC50 is reported as > 1000 nM.
`Nc1cc(C(F)(F)F)c2nc1-c1nnc(o1)/C(C(F)(F)F)=C\CCCC[C@@H]1CCCN21` [Compound 10, (6E,12R)-6,18-bis(trifluoromethyl)-22-oxa-3,4,16,21-tetraazatetracyclo[15.3.1.12,5.012,16]docosa-1(21),2,4,6,17,19-hexaen-20-amine] was tested, and the EC50 was > 1000 nM.
For `Nc1cc(-c2ccccc2)c2nc1-c1nnc(o1)C(O)(C(F)(F)F)CCCCC[C@@H]1CCCN21` (mixture of isomers) [Compound 118, (12R)-20-amino-18-phenyl-6-(trifluoromethyl)-22-oxa-3,4,16,21-tetraazatetracyclo[15.3.1.12,5.012,16]docosa-1(21),2,4,17,19-pentaen-6-ol], the EC50 was > 1000 nM.
With `Nc1cc(S(=O)(=O)c2ccccc2)c2nc1-c1nnc(o1)C(O)(C(F)(F)F)CCCCC[C@@H]1CCCN21` (single isomer, unassigned) [Compound 141] the EC50 was < 500 nM.
For `CC1(C)CC2CCCc3ccc(F)c(c3)C(O)(C(F)(F)F)C3=NN=C(O3)c3nc(c(C(F)(F)F)cc3N)N2C1` (stereo not drawn) [Compound 135, 23-amino-8-fluoro-17,17-dimethyl-6,21-bis(trifluoromethyl)-26-oxa-3,4,19,24-tetraazapentacyclo[18.3.1.12,5.17,11.015,19]hexacosa-1(24),2,4,7(25),8,10,20,22-octaen-6-ol], the EC50 was < 500 nM.
`CC1(C)CCC(O)CC[C@](O)(C(F)(F)F)C2=NN=C(O2)c2nc(c(C(F)(F)F)cc2N)N1` (single isomer, unassigned) [Compound 190] was tested, and the EC50 was < 500 nM.
For `CC1(C)CCC[C@@H](O)C[C@](O)(C(F)(F)F)C2=NN=C(O2)c2nc(c(C(F)(F)F)cc2N)N1` [Compound 187, (6R,8R)-17-amino-12,12-dimethyl-6,15-bis(trifluoromethyl)-19-oxa-3,4,13,18-tetrazatricyclo[12.3.1.12,5]nonadeca-1(18),2,4,14,16-pentaene-6,8-diol], the EC50 was < 500 nM.
`Nc1cc(C(F)(F)F)c2nc1-c1nnc(o1)C(O)(C(F)(F)F)CCCCCC(c1ccccc1)N2` (single isomer, unassigned) [Compound 122, 17-amino-12-phenyl-6,15-bis(trifluoromethyl)-19-oxa-3,4,13,18-tetrazatricyclo[12.3.1.12,5]nonadeca-1(18),2,4,14,16-pentaen-6-ol] was tested, and the EC50 was > 1000 nM.
`Nc1cc(C(F)(F)F)c2nc1-c1nnc(o1)C(O)(C(F)(F)F)c1cc(ccn1)CCC[C@@H]1CCCN21` (single isomer, unassigned) [Compound 85] was tested, and the EC50 was > 1000 nM.
For `Cn1cc(-c2cc(N)c3nc2N2CCC[C@H]2CCCCCC(O)(C(F)(F)F)C2=NN=C3O2)cn1` (mixture of isomers) [Compound 127, (12R)-20-amino-18-(1-methyl-1H-pyrazol-4-yl)-6-(trifluoromethyl)-22-oxa-3,4,16,21-tetraazatetracyclo[15.3.1.12,5.012,16]docosa-1(21),2,4,17,19-pentaen-6-ol], the EC50 was < 500 nM.
With `Nc1cc(C(F)(F)F)c2nc1-c1nnc(o1)C(=NO)CCCCC[C@@H]1CCCN21` [Compound 31, (12R)-6-(hydroxyimino)-18-(trifluoromethyl)-22-oxa-3,4,16,21-tetraazatetracyclo[15.3.1.12,5.012,16]docosa-1(21),2,4,17,19-pentaen-20-amine] the EC50 was < 500 nM.
`COc1cc2nc(c1N)-c1nnc(o1)C(O)(C(F)(F)F)CCCCC[C@@H]1CCCN21` (single isomer, unassigned) [Compound 159] was tested, and the EC50 was > 1000 nM.
In the case of `Nc1cc(C(F)(F)F)c2nc1-c1nnc(o1)C(O)(C(F)(F)F)c1ccc(F)c(c1)CCC[C@@H]1CCCN21` (single isomer, unassigned) [Compound 130], the EC50 is reported as > 1000 nM.
With `CCOC(=O)C1CCCCCC(O)(C(F)(F)F)C2=NN=C(O2)c2nc(c(C(F)(F)F)cc2N)N1` (single isomer, unassigned) [Compound 95, ethyl 17-amino-6-hydroxy-6,15-bis(trifluoromethyl)-19-oxa-3,4,13,18-tetrazatricyclo[12.3.1.12,5]nonadeca-1(18),2,4,14,16-pentaene-12-carboxylate] the EC50 was < 500 nM.
With `CC1CCCCCC(O)(C(F)(F)F)C2=NN=C(O2)c2nc(c(C(F)(F)F)cc2N)N1` (single isomer, unassigned) [Compound 66, 17-amino-12-methyl-6,15-bis(trifluoromethyl)-19-oxa-3,4,13,18-tetrazatricyclo[12.3.1.12,5]nonadeca-1(18),2,4,14,16-pentaen-6-ol] the EC50 was < 500 nM.
With `Nc1cc(C(F)(F)F)c2nc1-c1nnc(o1)[C@@](O)(C(F)(F)F)CCCCCC(C(=O)O)N2` (single isomer, unassigned) [Compound 156] the EC50 was < 500 nM.
With `CCNc1cc(C(F)(F)F)c2nc1-c1nnc(o1)[C@@](O)(C(F)(F)F)CCCCC[C@@H]1CCCN21` [Compound 14, (6R,12R)-20-(ethylamino)-6,18-bis(trifluoromethyl)-22-oxa-3,4,16,21-tetraazatetracyclo[15.3.1.12,5.012,16]docosa-1(21),2,4,17,19-pentaen-6-ol] the EC50 was < 500 nM.
For `Nc1ccc2nc1-c1nnc(o1)C(O)(C(F)(F)F)CCCCC[C@@H]1CCCN21` (single isomer, unassigned) [Compound 71], the EC50 was < 500 nM.
In the case of `COc1cc(N)c2nc1N1CCC[C@H]1CCCCCC(O)(C(F)(F)F)C1=NN=C2O1` (single isomer, unassigned) [Compound 114], the EC50 is reported as < 500 nM.
With `Nc1cc(-c2ccncc2)c2nc1-c1nnc(o1)C(O)(C(F)(F)F)CCCCC[C@@H]1CCCN21` (mixture of isomers) [Compound 125, (12R)-20-amino-18-(pyridin-4-yl)-6-(trifluoromethyl)-22-oxa-3,4,16,21-tetraazatetracyclo[15.3.1.12,5.012,16]docosa-1(21),2,4,17,19-pentaen-6-ol] the EC50 was > 1000 nM.
With `Nc1cc(C(F)(F)F)c2nc1-c1nnc(o1)C(O)(C(F)(F)F)CCCCC[C@@H]1COCCN21` (single isomer, unassigned) [Compound 54] the EC50 was < 500 nM.
In the case of `Nc1cc(C(F)(F)F)c2nc1-c1nnc(o1)C(O)(C(F)(F)F)CCCC[C@@H]1CCCN21` (single isomer, unassigned) [Compound 33], the EC50 is reported as > 1000 nM.
With `CN1CCCCCCC(O)(C(F)(F)F)C2=NN=C(O2)c2nc1c(S(C)(=O)=O)cc2N` (single isomer, unassigned) [Compound 39, 17-amino-13-methyl-15-methylsulfonyl-6-(trifluoromethyl)-19-oxa-3,4,13,18-tetrazatricyclo[12.3.1.12,5]nonadeca-1(18),2,4,14,16-pentaen-6-ol] the EC50 was < 500 nM.
In the case of `CC1(C)CCC(O)CC[C@](O)(C(F)(F)F)C2=NN=C(O2)c2nc(c(C(F)(F)F)cc2N)N1` (single isomer, unassigned) [Compound 189], the EC50 is reported as > 1000 nM.
With `Nc1cc(C(F)(F)F)c2nc1-c1nnc(o1)C(O)(C(F)(F)F)CCCCCC1CCS(=O)(=O)N21` (single isomer, unassigned) [Compound 112, 20-amino-6-hydroxy-6,18-bis(trifluoromethyl)-22-oxa-15λ6-thia-3,4,16,21-tetraazatetracyclo[15.3.1.12,5.012,16]docosa-1(21),2,4,17,19-pentaene-15,15-dione] the EC50 was 500 to 1000 nM.
In the case of `COc1ccc2cc1C(O)(C(F)(F)F)C1=NN=C(O1)c1nc(c(C(F)(F)F)cc1N)N1CCC[C@H]1CCC2` (single isomer, unassigned) [Compound 93], the EC50 is reported as < 500 nM.
For `Nc1cc(S(=O)(=O)c2ccccc2)c2nc1-c1nnc(o1)C(O)(C(F)(F)F)CCCCC[C@@H]1CCCN21` (single isomer, unassigned) [Compound 140], the EC50 was > 1000 nM.
In the case of `Nc1cc(C(F)(F)F)c2nc1-c1nnc(o1)C(O)(C(F)(F)F)CCCCCC(c1ccccc1)N2` (single isomer, unassigned) [Compound 119, 17-amino-12-phenyl-6,15-bis(trifluoromethyl)-19-oxa-3,4,13,18-tetrazatricyclo[12.3.1.12,5]nonadeca-1(18),2,4,14,16-pentaen-6-ol], the EC50 is reported as < 500 nM.
For `Nc1cc(C(F)(F)F)c2nc1-c1nnc(o1)C(O)(C(F)(F)F)CCCCCCN2` (single isomer, unassigned) [Compound 56, 17-amino-6,15-bis(trifluoromethyl)-19-oxa-3,4,13,18-tetrazatricyclo[12.3.1.12,5]nonadeca-1(18),2,4,14,16-pentaen-6-ol], the EC50 was < 500 nM.
For `Nc1cc(C(F)(F)F)c2nc1-c1nnc(o1)C(O)(C(F)(F)F)CCCCC[C@@H]1COCC(=O)N21` (single isomer, unassigned) [Compound 116], the EC50 was < 500 nM.
`CC1(C)CC2CCCc3ccc(F)c(c3)C(O)(C(F)(F)F)C3=NN=C(O3)c3nc(c(C(F)(F)F)cc3N)N2C1` (stereo not drawn) [Compound 136, 23-amino-8-fluoro-17,17-dimethyl-6,21-bis(trifluoromethyl)-26-oxa-3,4,19,24-tetraazapentacyclo[18.3.1.12,5.17,11.015,19]hexacosa-1(24),2,4,7(25),8,10,20,22-octaen-6-ol] was tested, and the EC50 was < 500 nM.
For `Nc1cc(C(F)(F)F)c2nc1-c1nnc(o1)[C@@](O)(C(F)(F)F)CCCCCC(C1CC1)N2` (single isomer, unassigned) [Compound 192], the EC50 was < 500 nM.
For `Nc1cc(C(F)(F)F)c2nc1-c1nnc(o1)C(O)(C(F)(F)F)CCCCCCC1CCCN21` (single isomer, unassigned) [Compound 25, 21-amino-6,19-bis(trifluoromethyl)-23-oxa-3,4,17,22-tetraazatetracyclo[16.3.1.12,5.013,17]tricosa-1(22),2,4,18,20-pentaen-6-ol], the EC50 was < 500 nM.

— US12324802B2, “Modulators of cystic fibrosis transmembrane conductance regulator” (Vertex Pharmaceuticals Incorporated, priority 2020, dated 2025)
